Results reported in patent publication US20240226063A1, “SOLUBLE ANALOGUES OF 6BIO THEREOF AND IMPLEMENTATION THEREOF” (JAWAHARLAL NEHRU CENTRE FOR ADVANCED SCIENTIFIC RESEARCH, priority 2021, published 2024).
“Also recorded” adds a separate entry of the source.

Columns and labels:
[1] = test system: MPTP mice; experiment: MPTP mouse model of Parkinsonism (rotarod and open field test); type: in vivo; settings: 5 mg/kg intraperitoneal, administered along with MPTP
Experimental: The effect of 6-BIO on neurodegenerative disorders such as Parkinson's was evaluated based on testing the ability of 6-BIO on toxic protein aggregates such as the SNCA/a-synuclein protein in mice (FIG. 9) and the modulation of the autophagy flux (FIG. 10). MPTP is a widely accepted mouse model to study Parkinsonism. […] For the study, mice were intraperitoneally injected with 6-BIO at a concentration of 5 mg/kg based on the body weight of the mice.
FIG. 9 and FIG. 10 illustrated the results observed on the effect of 6-BIO and its derivatives on neurodegenerative disorders. FIG. 9 depicts the effect of administration of 5 mg/kg of 6-BIO on (A) the latency to fall of various cohorts namely placebo mice, MPTP mice (Parkinsonian mice) and the MPTP mice administered with 6-BIO (MPTP+Co) was assessed by rotarod test (B) Representative trajectory maps of all mentioned cohorts as analysed by open field test. (C) Periphery distance travelled by all indicated cohorts as assessed by open field test. […]

[2] = test system: Syngap1^+/− mice; experiment: Social novelty test (social interaction and social preference); type: in vivo; settings: for Social Interference (social interaction, time with stranger 1 vs empty jar) / Social Preference (time with stranger 2 vs stranger 1): 5 mg/kg intraperitoneal
Experimental: (§1) The ability of 6-BIO on the behavioural deficits related to neurodevelopmental disorders was observed based on its theoretical ability to correct synaptic plasticity, EGABA, and behavioural dysfunction in mice with mutated Syngap1 gene. Two populations of mice tested were: wild type (WT) mice and mice with mutated Syngap1 gene referred to as Syngap1^+/− mice. […] In the control group and the Syngap1^+/− mice, the subjects were administered with 5 mg/kg of 6-BIO based on the bodyweight of the subject. […] For example, 2-9, male mice were used.
Social Novelty Test: Similar to the novel object recognition in Example 2, the social novelty test was performed for all age groups at 80 days. The social novelty test was performed based on the social interaction (SI) and social preference (SP) of the control wild type and Syngap1^+/− mice and wild type and Syngap1^+/− treated with 6-BIO. The social interaction was observed based on the time spent by the mice in isolation in comparison to time spent with one other mouse (stranger 1) and the social preference was observed based on the time spent with two different mice (stranger 1 and stranger 2)

[3] = test system: Syngap1^+/− mice; experiment: EGABA, Cl^− reversal potential; type: in vivo; settings: 5 mg/kg intraperitoneal, Group I (P10-16), recorded P16
[4] = test system: Syngap1^+/− mice; experiment: Long term potential; type: in vivo; settings: 5 mg/kg intraperitoneal
[5] = test system: Syngap1^+/− mice; experiment: Novel object recognition test (memory); type: in vivo; settings: for Novel Object Recognition (memory, discrimination index): 5 mg/kg intraperitoneal
Experimental: as §1
The wild type and Syngap1^+/− mice in the absence of any treatment were compared with the mice intra-peritoneally injected with 6-BIO and their behaviour was recorded with regards to recognition of a familiar object versus reaction to a novel object.

[6] = test system: Syngap1^+/− mice; experiment: Fluoroethyl-based seizure threshold; type: in vivo; settings: intraperitoneal, Group III (P30-80), recorded P80
Experimental: For investigating the effect of 6-BIO on the wild type and Syngap1^+/− mice in group III (P30-P80), mice were injected intraperitoneally with 6-BIO. The subsequent fluoroethyl-based seizure threshold i.e., susceptibility of mice to epileptic seizures was evaluated and plotted as grouped data showing individual points for the involuntary and rhythmic muscular contractions and relaxations referred to as clonus.

[7] = test system: Syngap1^+/− mice; experiment: Open field test (hyperactivity/motor function and anxiety); type: in vivo; settings: 5 mg/kg intraperitoneal
Experimental: as §1
Syngap1^+/− mice in groups I, II and III. […]

[8] = test system: autophagy flux; experiment: Autophagy flux (levels of autophagosomes and autolysosomes); type: cell-based; settings: cells, compared to growth media control
From the text: The derivatives of 6-BIO such as the compound 6-methoxyindirubin oxime (6-MIO), compound 50 and compound 51 were synthesized to improve their water solubility. The effect of 6-BIO and the aforementioned derivatives of 6-BIO on autophagy flux in the form of autophagosomes and autolysosomes are depicted in FIG. 10. […] Thus, the derivatives have a better potency to restore neuronal function to wild type level in neurodevelopmental disorders and play a neuroprotective role in neurodegeneration.

[9] = Group II (P10-80), recorded P42/P80
[10] = Group III (P30-80), recorded P80

SMILES: O=C1Nc2cc(Br)ccc2/C1=C1/Nc2ccccc2/C1=N\O [6-BIO, (2′Z, 3′E)-6-Bromoindirubin-3′-oxime]
- Effect on MPTP-induced neurodegeneration (rotarod latency to fall, open field periphery distance) [1]: protects neurons from degeneration
- Social Interference (social interaction, time with stranger 1 vs empty jar) ([2]; Group I (P10-16), recorded P80): Corrected
- Social Preference (time with stranger 2 vs stranger 1) ([2]; Group I (P10-16), recorded P80, 5 mg/kg): lack of improvement
- Social Interference (social interaction, time with stranger 1 vs empty jar) [2, 9]: Corrected
- Social Preference (time with stranger 2 vs stranger 1) [2, 9]: Corrected
- Social Interference (social interaction, time with stranger 1 vs empty jar) [2, 10]: Corrected
- Social Preference (time with stranger 2 vs stranger 1) [2, 10]: Corrected
- Social interaction: time spent with stranger 1 as compared to the empty jar ([2]; all age groups, recorded at P80): comparable to wild type mice
- EGABA, Cl^− reversal potential [3]: Corrected
- Long term potential [4, 9]: Corrected
- Long term potential [4, 10]: Corrected
- Novel Object Recognition (memory, discrimination index) ([5]; Group I (P10-16), recorded P80): Corrected
- Novel Object Recognition (memory, discrimination index) [5, 9]: Corrected
- Novel Object Recognition (memory, discrimination index) ([5]; Group III (P30-80), recorded P80, 5 mg/kg): corrected the memory deficits
- Memory deficits (novel object recognition, discrimination index) ([5]; all three age groups, behaviour at 80 days): substantially corrected memory deficits
- Seizure threshold (fluoroethyl-based, tonic-clonic) [6]: corrected the seizure threshold
- Open field, Anxiety (number of entries in the centre) ([7]; Group I (P10-16), recorded P16): anxiety was corrected
- Open field, Motor function (hyperactivity, total distance travelled) ([7]; Group I (P10-16), recorded P16): hyperactivity was corrected
- Open field, Anxiety (number of entries in the centre) ([7]; Group I (P10-16), recorded P80): anxiety was corrected; also recorded: ameliorates
- Open field, Motor function (hyperactivity, total distance travelled) ([7]; Group I (P10-16), recorded P80): partial correction of hyperactivity; also recorded: ameliorates hyperactivity
- Open field, Anxiety (number of entries in the centre) [7, 9]: anxiety was corrected
- Open field, Motor function (hyperactivity, total distance travelled) [7, 9]: partial correction was observed
- Open field, Anxiety (number of entries in the centre) [7, 10]: partial correction of the anxiety
- Open field, Motor function (hyperactivity, total distance travelled) [7, 10]: no rescue behaviour
- Levels of autophagosomes [8]: increased

SMILES: COc1ccc2c(c1)NC(=O)C2=C1Nc2ccccc2C1=NO [6-MIO, 6-methoxyindirubin oxime]
- Levels of autolysosomes [8]: increased
- Levels of autophagosomes [8]: increased

SMILES: O=C1Nc2cc(Br)ccc2/C1=C1/Nc2ccccc2/C1=N\O [compound 50, (2Z,3E)-6′-bromo-3-(hydroxyimino)-[2,3′-biindolinylidene]-2′-one]
- Levels of autolysosomes [8]: increased

SMILES: O=C1Nc2cc(Br)ccc2/C1=C1/Nc2ccccc2/C1=N\OCCO [compound 51, (2Z,3E)-6′-bromo-3-((2-hydroxyethoxy)imino)-[2,3′-biindolinylidene]-2′-one]
- Levels of autolysosomes [8]: increased
- Levels of autophagosomes [8]: increased
